In patent publication US9260731B2 (RELIANCE INDUSTRIES LIMITED, priority 2012, dated 2016):
Where two headings read alike, the source gives them in different places.

Tests used:
[1] = system: wild type C. acetobutylicum; assay: Rhodamine 6G accumulation on AT agar, wild type; type: cell-based, Clostridium acetobutylicum; details: 100 μg/ml in AT agar, 24 h, 37° C., anaerobic
Procedure: (§1) Cells of overnight culture of wild type and solvent-tolerant mutant C. acetobutylicum MTCC 5587 were spotted on AT agar with or without rhodamine 6G (100 μg/ml) and incubated at 37° C. in anaerobic chamber for 24 h. Accumulation of rhodamine 6G was monitored under UV light (Lazaroaie, 2009).

[2] = system: solvent-tolerant mutant C. acetobutylicum MTCC 5587; assay: Rhodamine 6G accumulation on AT agar, solvent-tolerant mutant; type: cell-based, Clostridium acetobutylicum; details: 100 μg/ml in AT agar, 24 h, 37° C., anaerobic
Procedure: as §1

[3] = system: C. acetobutylicum MTCC 5587 (mutant strain B90)
Procedure: Chemical mutagenesis was carried out using MNNG (1-methyl-3-nitro-1-nitrosoguanidine). Alternate thioglycolate (AT) media was inoculated with C. acetobutylicum ATCC 4259 from the stab culture. After 12 h growth at 37° C., the culture was harvested and centrifuged. The cell pellet was washed with 2 ml citrate buffer (pH 5.8) and 100 μl of MNNG (stock solution 100 mg/ml prepared in sterilized distilled water) was added to the cells, incubated at 30° C. for 70 min. The mutagenised cell mass was centrifuged and the supernatant discarded appropriately in biohazard containers. The cells were washed twice with AT broth and resuspended in 1 ml AT broth.
(§2) The tolerance and growth profile of the mutant was monitored with respect to time.

[4] = system: C. acetobutylicum ATCC 4259 (wild type strain)
Excerpt: as §2

Molecule	accumulation of rhodamine 6G (colony colour under UV light) [1]	accumulation of rhodamine 6G intracellularly (colony colour under UV light) [2]	growth in presence of butanol ([3]; 3.8% butanol)	growth in presence of butanol ([3]; 4% butanol)	growth in presence of butanol ([3]; at the highest tolerated levels of butanol (up to […] v/v))	butanol tolerated in the AT medium ([3]; mutant strain, AT medium)	butanol tolerated in the medium, beyond which there was cessation of growth [4]
CCN=c1cc2oc3cc(NCC)c(C)cc3c(-c3ccccc3C(=O)OCC)c-2cc1C.Cl [rhodamine 6G]	comparatively lower dye accumulation	high accumulation	–	–	–	–	–
n-butanol	–	–	no growth	no growth	extremely slow and feeble	up to 3.5 % (v/v)	up to 1.5%
